This note sets out measurements from patent US11077136B2, “Compositions for the skin” (BIOIBERICA, S.A.U., priority 2016, dated 2021).

In the experiment the test system is Human dermal fibroblasts (HDF). The experiment can be described thus: In vitro wound closure (healing activity) test, area covered with cells. As to conditions: 48 hours; O-3 0.156 mg/mL, HA 0.0017 mg/mL, DS 0.0004 mg/mL, N 0.0818 mg/mL, ZnO 0.0027 mg/mL; FIG. 4 and 5; p<0.05 where significant. Format: cell-based. From the text: Human dermal fibroblasts (HDF) were used, which were cultivated in dishes with 24 wells with a surface area of 1.99 cm^2, with a density of 7×10^4 cells/well. A mark was made in a straight line approximately 2 mm wide on the surface of the single layer of cells using a sterile plastic tip, creating an area free of cells. […]
The cells were then allowed to migrate to the center of the dish, to cover the area free of cells, in the presence of the compounds being studied, and the area covered with cells was quantified after 48 hours using the TIRF Automated Inverted Microscope—ScanR Olympus […] and a 4× objective lens (total amplification 40×). […]
To determine the healing activity of each treatment, the area covered by cells was quantified, in μm^2, before (T0 h) and after (48 h) the treatment, using image analysis using the software Image J. The results were compared with those obtained for the negative and positive controls.

In the case of `[O]=[Zn]` [ZnO, Zinc oxide], the “increase in healing (area covered with cells) versus negative control” value is “did not cause a significant increase in healing”.
